Experimental data published in patent US9567319B2, “Compound having higher inhibitory activity on protein kinase G and preparation method thereof” (Jenkem Technology Co., Ltd., (Tianjin), priority 2014, dated 2017).
Where “and” joins values, the source holds several entries; their conditions need not be identical. Equal entries are not always repeated.

Tested on: hyperalgesia induced by Freund's complete adjuvant (CFA) in rats
Test: Weight bearing test, CFA induced hyperalgesia in rats
Assay type: in vivo, SD rats
Conditions: for Weight Bearing Test Values (Mean ± SD), Baseline: pretreatment, n=8; for Weight Bearing Test Values (Mean ± SD), 15 min: 15 min post treatment; for Weight Bearing Test Values (Mean ± SD), 2 h: 2 h post treatment; for Weight Bearing Test Values (Mean ± SD), 5 h: 5 h post treatment; for Weight Bearing Values of Individual Animal, Day 14, 15 min, Left / Weight Bearing Values of Individual Animal, Day 14, 15 min, Right / Weight Bearing Values of Individual Animal, Day 14, 15 min, Δ / Weight Bearing Values of Individual Animal, Day 14, 2 h, Left / Weight Bearing Values of Individual Animal, Day 14, 2 h, Right / Weight Bearing Values of Individual Animal, Day 14, 2 h, Δ / Weight Bearing Values of Individual Animal, Day 14, 5 h, Left / Weight Bearing Values of Individual Animal, Day 14, 5 h, Right / Weight Bearing Values of Individual Animal, Day 14, 5 h, Δ: high dose i.v. (46 and JK-02A 40 mg/kg, JK-02H 20 mg/kg); for Weight Bearing Values of Individual Animal, Day 7, 15 min, Left / Weight Bearing Values of Individual Animal, Day 7, 15 min, Right / Weight Bearing Values of Individual Animal, Day 7, 15 min, Δ / Weight Bearing Values of Individual Animal, Day 7, 2 h, Left / Weight Bearing Values of Individual Animal, Day 7, 2 h, Right / Weight Bearing Values of Individual Animal, Day 7, 2 h, Δ: low dose i.v. (46 and JK-02A 10 mg/kg, JK-02H 5 mg/kg); for First Baseline, Balance Left, individual animal: pretreatment day 7, left (CFA-injected) hind paw; for First Baseline, Balance Right, individual animal: pretreatment day 7, right hind paw; for First Baseline, Balance Δ, individual animal: pretreatment day 7, right minus left; for Second Baseline, Balance Left, individual animal: pretreatment day 14, left (CFA-injected) hind paw; for Second Baseline, Balance Right, individual animal: pretreatment day 14, right hind paw; for Second Baseline, Balance Δ, individual animal: pretreatment day 14, right minus left
Method: Compounds 46 and JK-02A were prepared according to the disclosure of US patent application No. US2008/0176920, and compound JK-02H was prepared according to Example 1. A repeat efficacy study was carried out on the same batch of animals with a single-dose treatment followed by a washing-out period. The 14 days in life studies included two stages: a single low dose treatment assessment on the 7th day and then a single high dose treatment test on the 14th day after CFA injection. On the 7th day after CFA injection, the rats were randomly assigned to respective groups using a computer generated randomization procedure based on the body weight and the baseline values of Von Frey and weight bearing test. Animals received corresponding single dose treatments (vehicle and 3 test articles) on the 7th and 14th days after CFA injection, respectively, and the effect of the test compounds were evaluated. Hyperalgesia of all the study animals was assessed following a single low dose treatment with the test articles on day 7, while a single high dose effect of the test article was evaluated on day 14. The mechanical hyperalgesia and weight bearing were measured on day 7 and day 14 after CFA injection, followed by administration of control or test articles. Von Frey filaments and weight bearing were measured on all the study animals at three time points on day 7, and four time points on day 14. An extra time point assessment was conducted on day 14, considering the strong analgesic effect of the test articles at a higher dose noticed during the test at the 3th time point. Rats distributed body weight unequally on the CFA-injected and contra lateral paws, which was measured by a weight balance changing instrument (Bio-medical, USA). The animals were tested in a box constructed to register the weight load exerted by the hind paws by means of force plates inserted in the floor. The mean weight bearing (unit in “g”) between the CFA-injected paw and the contra-lateral paw was determined in 10 seconds. The weight bearing test of all study animals was conducted at the same time intervals as the mechanical hyperalgesia test. All the results were expressed as mean±SD. One-way analysis of variance (ANOVA) followed by a multiple comparison test were applied among the groups, p<0.05 accepted as significant.

[1] = day 7 after CFA, low dose groups (46 and JK-02A 10 mg/kg, JK-02H 5 mg/kg)
[2] = day 7 after CFA, single low dose i.v. (46 and JK-02A 10 mg/kg, JK-02H 5 mg/kg)
[3] = day 14 after CFA, high dose groups (46 and JK-02A 40 mg/kg, JK-02H 20 mg/kg)
[4] = day 14 after CFA, single high dose i.v. (46 and JK-02A 40 mg/kg, JK-02H 20 mg/kg)

Structure (SMILES) | Weight Bearing Test Values (Mean ± SD), Baseline [1] [g] | Weight Bearing Test Values (Mean ± SD), 15 min [2] [g] | Weight Bearing Test Values (Mean ± SD), 2 h [2] [g] | Weight Bearing Test Values (Mean ± SD), Baseline [3] [g] | Weight Bearing Test Values (Mean ± SD), 15 min [4] [g] | Weight Bearing Test Values (Mean ± SD), 2 h [4] [g] | Weight Bearing Test Values (Mean ± SD), 5 h [4] [g] | Weight Bearing Values of Individual Animal, Day 14, 15 min, Left | Weight Bearing Values of Individual Animal, Day 14, 15 min, Right | Weight Bearing Values of Individual Animal, Day 14, 15 min, Δ | Weight Bearing Values of Individual Animal, Day 14, 2 h, Left | Weight Bearing Values of Individual Animal, Day 14, 2 h, Right | Weight Bearing Values of Individual Animal, Day 14, 2 h, Δ | Weight Bearing Values of Individual Animal, Day 14, 5 h, Left | Weight Bearing Values of Individual Animal, Day 14, 5 h, Right | Weight Bearing Values of Individual Animal, Day 14, 5 h, Δ | Weight Bearing Values of Individual Animal, Day 7, 15 min, Left | Weight Bearing Values of Individual Animal, Day 7, 15 min, Right | Weight Bearing Values of Individual Animal, Day 7, 15 min, Δ | Weight Bearing Values of Individual Animal, Day 7, 2 h, Left | further results
CCCOc1ccc(F)c(F)c1C(=O)c1ccc(C(=O)N[C@@H]2CNC[C@H]2NC(=O)c2ccc3cn[nH]c3c2)cc1 [JK-02A] | 48.18 ± 5.05 | 38.11 ± 11.23 | 36.24 ± 9.72 | 49.54 ± 7.39 | 28.43 ± 8.83 | 33.36 ± 8.92 | 42.69 ± 7.52 | 58.9 g and 57.8 g and 49.6 g and 53.7 g and 52.7 g and 50.9 g and 67.1 g and 72.2 g | 77.1 g and 95.3 g and 77.6 g and 90.1 g and 80.4 g and 80.1 g and 104.0 g and 85.7 g | 18.2 g and 37.5 g and 28.0 g and 36.4 g and 27.7 g and 29.2 g and 36.9 g and 13.5 g | 66.8 g and 71.9 g and 48.9 g and 60.7 g and 50.1 g and 54.6 g and 44.8 g and 72.2 g | 97.0 g and 106.5 g and 97.2 g and 81.1 g and 79.8 g and 91.1 g and 86.5 g and 97.7 g | 30.2 g and 34.6 g and 48.3 g and 20.4 g and 29.7 g and 36.5 g and 41.7 g and 25.5 g | 38.0 g and 62.9 g and 55.0 g and 45.7 g and 52.7 g and 39.7 g and 54.9 g and 68.2 g | 77.2 g and 99.3 g and 93.8 g and 90.7 g and 92.0 g and 99.9 g and 95.3 g and 110.4 g | 39.2 g and 36.4 g and 38.8 g and 45.0 g and 39.3 g and 60.2 g and 40.4 g and 42.2 g | 36.6 g and 56.4 g and 47.8 g and 37.9 g and 36.9 g and 50.5 g and 25.4 g and 65.6 g | 83.8 g and 79.1 g and 74.1 g and 89.5 g and 62.9 g and 93.7 g and 69.1 g and 109.8 g | 47.2 g and 22.7 g and 26.3 g and 51.6 g and 26.0 g and 43.2 g and 43.7 g and 44.2 g | 68.5 g and 68.0 g and 31.5 g and 39.9 g and 43.9 g and 37.3 g and 52.3 g and 62.2 g | Weight Bearing Values of Individual Animal, Day 7, 2 h, Right: 99.4 g and 85.5 g and 80.7 g and 75.7 g and 77.3 g and 73.4 g and 95.8 g and 105.7 g; Weight Bearing Values of Individual Animal, Day 7, 2 h, Δ: 30.9 g and 17.5 g and 49.2 g and 35.8 g and 33.4 g and 36.1 g and 43.5 g (2×); First Baseline, Balance Left, individual animal: 54.2 g and 57.2 g and 45.5 g and 64.4 g and 45.6 g and 12.0 g and 58.0 g and 64.0 g; First Baseline, Balance Right, individual animal: 103.7 g and 98.1 g and 93.0 g and 117.4 g and 90.5 g and 66.3 g and 100.6 g and 116.7 g; First Baseline, Balance Δ, individual animal: 49.5 g and 40.9 g and 47.5 g and 53.0 g and 44.9 g and 54.3 g and 42.6 g and 52.7 g; Second Baseline, Balance Left, individual animal: 32.1 g and 47.3 g and 30.4 g and 45.9 g and 50.1 g and 39.6 g and 33.5 g and 57.1 g; Second Baseline, Balance Right, individual animal: 89.3 g and 90.0 g and 81.0 g and 87.2 g and 92.4 g and 90.4 g and 94.1 g and 97.9 g; Second Baseline, Balance Δ, individual animal: 57.2 g and 42.7 g and 50.6 g and 41.3 g and 52.3 g and 50.8 g and 60.6 g and 40.8 g
CCCOc1ccc(O)c(F)c1C(=O)c1ccc(C(=O)N[C@@H]2CNC[C@H]2NC(=O)c2ccc3cn[nH]c3c2)cc1 [compound 46] | 48.54 ± 7.73 | 44.76 ± 8.54 | 41.09 ± 8.58 | 46.73 ± 5.58 | 34.03 ± 5.67 | 44.46 ± 11.29 | 41.06 ± 6.98 | 62.4 g and 64.0 g and 61.5 g and 63.7 g and 59.2 g and 39.7 g and 52.6 g and 68.4 g | 96.4 g and 104.7 g and 95.1 g and 95.7 g and 96.9 g and 71.9 g and 75.2 g and 107.8 g | 34.0 g and 40.7 g and 33.6 g and 32.0 g and 37.7 g and 32.2 g and 22.6 g and 39.4 g | 59.9 g and 68.1 g and 65.7 g and 44.8 g and 56.2 g and 36.9 g and 65.4 g and 67.0 g | 107.1 g and 101.0 g and 112.2 g and 110.9 g and 98.5 g and 87.3 g and 94.8 g and 107.9 g | 47.2 g and 32.9 g and 46.5 g and 66.1 g and 42.3 g and 50.4 g and 29.4 g and 40.9 g | 55.9 g and 34.5 g and 56.8 g and 58.2 g and 47.3 g and 31.3 g and 41.6 g and 73.0 g | 102.4 g and 85.3 g and 101.8 g and 88.4 g and 90.0 g and 66.5 g and 76.3 g and 116.4 g | 46.5 g and 50.8 g and 45.0 g and 30.2 g and 42.7 g and 35.2 g and 34.7 g and 43.4 g | 47.4 g and 40.2 g and 67.4 g and 60.4 g and 40.3 g and 39.0 g and 24.3 g and 58.1 g | 93.5 g and 94.1 g and 110.9 g and 89.1 g and 91.2 g and 81.7 g and 62.7 g and 112.0 g | 46.1 g and 53.9 g (2×) and 43.5 g and 28.7 g and 50.9 g and 42.7 g and 38.4 g | 48.5 g and 39.0 g and 65.0 g and 66.3 g and 48.4 g and 43.4 g and 38.0 g and 54.8 g | Weight Bearing Values of Individual Animal, Day 7, 2 h, Right: 91.5 g and 81.8 g and 102.9 g and 97.7 g and 80.7 g and 82.3 g and 81.5 g and 113.7 g; Weight Bearing Values of Individual Animal, Day 7, 2 h, Δ: 43.0 g and 42.8 g and 37.9 g and 31.4 g and 32.3 g and 38.9 g and 43.5 g and 58.9 g; First Baseline, Balance Left, individual animal: 31.3 g and 27.8 g and 41.8 g and 63.2 g and 73.9 g and 49.6 g and 33.9 g and 60.4 g; First Baseline, Balance Right, individual animal: 83.6 g and 87.0 g and 91.8 g and 105.0 g and 114.0 g and 102.9 g and 71.5 g and 114.4 g; First Baseline, Balance Δ, individual animal: 52.3 g and 59.2 g and 50.0 g and 41.8 g and 40.1 g and 53.3 g and 37.6 g and 54.0 g; Second Baseline, Balance Left, individual animal: 61.3 g and 45.0 g and 70.0 g and 51.2 g and 34.7 g and 24.8 g and 43.5 g and 65.5 g; Second Baseline, Balance Right, individual animal: 115.3 g and 95.2 g and 119.5 g and 104.5 g and 76.6 g and 67.1 g and 84.3 g and 107.3 g; Second Baseline, Balance Δ, individual animal: 54.0 g and 50.2 g and 49.5 g and 53.3 g and 41.9 g and 42.3 g and 40.8 g and 41.8 g
